Experimental data from PubChem BioAssay (NCI).
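GI50 = concentration required for 50% inhibition of growth. TGI denotes the concentration required for complete inhibition of growth.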

Tests used:
Assay in all cases: growth of human tumour cells (NCI), 384-well format
[1] = test system: HOP-92 NSCLC
[2] = test system: T-47D breast
[3] = test system: OVCAR-5 ovarian
[4] = test system: HCT-116 colon
[5] = test system: COLO 205 colon
[6] = test system: K-562 leukemia
[7] = test system: SK-OV-3 ovarian
[8] = test system: NCI-H322M lung
[9] = test system: SF-268 CNS
[10] = test system: OVCAR-3 ovarian
[11] = test system: SF-295 CNS
[12] = test system: PC-3 prostate
[13] = test system: HOP-62 NSCLC
[14] = test system: A549 NSCLC
[15] = test system: SN12C renal
[16] = test system: MCF7 breast
[17] = test system: EKVX NSCLC
[18] = test system: NCI/ADR-RES ovarian
[19] = test system: SK-MEL-5 melanoma
[20] = test system: SK-MEL-2 melanoma
[21] = test system: RXF 393 renal
[22] = test system: UO-31 renal
[23] = test system: MALME-3M melanoma
[24] = test system: MDA-MB-435 melanoma
[25] = test system: SNB-19 CNS
[26] = test system: A498 renal
[27] = test system: HS 578T breast
[28] = test system: IGROV1 ovarian
[29] = test system: 786-0 renal
[30] = test system: MDA-MB-468 breast
[31] = test system: SNB-75 CNS
[32] = test system: TK-10 renal
[33] = test system: NCI-H460 NSCLC
[34] = test system: HCT-15 colon
[35] = test system: MOLT-4 leukemia
[36] = test system: OVCAR-4 ovarian
[37] = test system: UACC-62 melanoma
[38] = test system: HT29 colon
[39] = test system: HL-60(TB) leukemia
[40] = test system: RPMI-8226 leukemia
[41] = test system: NCI-H23 lung
[42] = test system: BT-549 breast
[43] = test system: OVCAR-8 ovarian
[44] = test system: UACC-257 melanoma
[45] = test system: SF-539 CNS
[46] = test system: SR leukemia
[47] = test system: HCC-2998 colon
[48] = test system: M14 melanoma
[49] = test system: LOX IMVI melanoma
[50] = test system: NCI-H226 lung
[51] = test system: NCI-H522 lung
[52] = test system: SK-MEL-28 melanoma
[53] = test system: DU-145 prostate
[54] = test system: KM12 colon
[55] = test system: U251 glioblastoma
[56] = test system: SW-620 colon
[57] = test system: MDA-MB-231 breast
[58] = test system: ACHN renal
[59] = test system: CAKI-1 renal
[60] = test system: CCRF-CEM leukemia

## Cn1ncnc1[C@H]1c2n[nH]c(=O)c3cc(F)cc(c23)N[C@@H]1c1ccc(F)cc1
[1]
  GI50: 46.9 µM
  TGI: > 100 µM
[2]
  GI50: 10.9 µM
  TGI: > 100 µM
[3]
  GI50: > 100 µM
  TGI: > 100 µM
[4]
  GI50: 0.706 µM
  TGI: > 100 µM
[5]
  GI50: 1.87 µM
  TGI: > 100 µM
[6]
  GI50: 30.7 µM
  TGI: > 100 µM
[7]
  GI50: 3.82 µM
  TGI: > 100 µM
[8]
  GI50: > 100 µM
  TGI: > 100 µM
[9]
  GI50: 1.39 µM
[10]
  GI50: > 79.7 µM
  TGI: > 100 µM
[11]
  GI50: 0.204 µM
  TGI: 2.56 µM
[12]
  GI50: > 100 µM
  TGI: > 100 µM
[13]
  GI50: 0.228 µM
  TGI: 8.8 µM
[14]
  GI50: 7.83 µM
  TGI: > 100 µM
[15]
  GI50: 3.72 µM
  TGI: > 100 µM
[16]
  GI50: 1.72 µM
  TGI: > 100 µM
[17]
  GI50: > 78.7 µM
  TGI: > 100 µM
[18]
  GI50: 17.4 µM
  TGI: > 100 µM
[19]
  GI50: 41.1 µM
  TGI: > 100 µM
[20]
  GI50: > 100 µM
  TGI: > 100 µM
[21]
  GI50: 3.29 µM
  TGI: > 26.9 µM
[22]
  GI50: 26.9 µM
  TGI: > 100 µM
[23]
  GI50: > 64.6 µM
  TGI: > 100 µM
[24]
  GI50: > 100 µM
  TGI: > 100 µM
[25]
  GI50: 10.9 µM
  TGI: > 100 µM
[26]
  GI50: 31.1 µM
  TGI: > 100 µM
[27]
  GI50: 15.2 µM
  TGI: > 100 µM
[28]
  GI50: > 33 µM
  TGI: > 100 µM
[29]
  GI50: > 73.7 µM
  TGI: > 100 µM
[30]
  GI50: 0.123 µM
  TGI: 1.13 µM
[31]
  GI50: 6.38 µM
  TGI: 29.5 µM
[32]
  GI50: > 100 µM
  TGI: > 100 µM
[33]
  GI50: 0.0169 µM
  TGI: > 66.3 µM
[34]
  GI50: > 43.7 µM
  TGI: > 100 µM
[35]
  GI50: 0.0183 µM
  TGI: 0.145 µM
[36]
  GI50: > 84.8 µM
  TGI: > 100 µM
[37]
  GI50: 14.7 µM
  TGI: > 100 µM
[38]
  GI50: > 100 µM
  TGI: > 100 µM
[39]
  GI50: 0.625 µM
  TGI: 1.99 µM
[40]
  GI50: 6.39 µM
  TGI: > 100 µM
[41]
  GI50: 0.56 µM
  TGI: > 47.7 µM
[42]
  GI50: 2.5 µM
  TGI: > 61.4 µM
[43]
  GI50: 0.804 µM
  TGI: > 100 µM
[44]
  GI50: > 100 µM
  TGI: > 100 µM
[45]
  GI50: 1.02 µM
  TGI: > 100 µM
[46]
  TGI: 0.0102 µM
[47]
  GI50: 40.3 µM
  TGI: > 100 µM
[48]
  GI50: 2.25 µM
  TGI: > 100 µM
[49]
  GI50: 2.07 µM
  TGI: > 100 µM
[50]
  GI50: 22 µM
  TGI: > 100 µM
[51]
  GI50: 44.6 µM
  TGI: > 100 µM
[52]
  GI50: > 90.3 µM
  TGI: > 100 µM
[53]
  GI50: 1.38 µM
  TGI: 30 µM
[54]
  GI50: > 100 µM
  TGI: > 100 µM
[55]
  GI50: 2.88 µM
  TGI: > 100 µM
[56]
  GI50: 3.66 µM
  TGI: > 100 µM
[57]
  GI50: > 100 µM
  TGI: > 100 µM
[58]
  GI50: 17 µM
  TGI: > 100 µM
[59]
  GI50: 21 µM
  TGI: > 100 µM
[60]
  GI50: 0.256 µM
  TGI: 1.27 µM
